Measured values taken from PubChem BioAssay AID248 (DTP/NCI, 2004).
Several values for one entry are separate records, joined by “and”; a condition that tells them apart may be missing. Equal entries are not always repeated. Toxic doses and inconclusive results are not listed. Cut-off read from the data, not from the text of the source: active = T/C of 150% or more; inactive = T/C below 125%.

Tested on: L1210 leukemia ip in BDF1 mice, survival T/C
Assay: NCI In Vivo Anticancer Drug Screen. Data for tumor model L1210 Leukemia (intraperitoneal) in B6D2F1 (BDF1) mice
Details: endpoint: mean survival time, higher = longer survival
In short: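 Transplantable tumor model; survival measured in treated vs vehicle control mice. Value = treated/control.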

[1] = dose: 100.0 mg/kg/injection, schedule: Q01DX001 (ip), vehicle: saline
[2] = dose: 200.0 mg/kg/injection, schedule: Q01DX001 (ip), vehicle: saline
[3] = dose: 400.0 mg/kg/injection, schedule: Q01DX001 (ip), vehicle: saline
[4] = dose: 75.0 mg/kg/injection, schedule: Q01DX001 (ip), vehicle: saline
[5] = dose: 150.0 mg/kg/injection, schedule: Q01DX001 (ip), vehicle: saline
[6] = dose: 300.0 mg/kg/injection, schedule: Q01DX001 (ip), vehicle: saline
[7] = dose: 50.0 mg/kg/injection, schedule: Q01DX001 (ip), vehicle: carboxymethylcellulose (CMC)
[8] = dose: 100.0 mg/kg/injection, schedule: Q01DX001 (ip), vehicle: carboxymethylcellulose (CMC)
[9] = dose: 200.0 mg/kg/injection, schedule: Q01DX001 (ip), vehicle: carboxymethylcellulose (CMC)
[10] = dose: 400.0 mg/kg/injection, schedule: Q01DX001 (ip), vehicle: carboxymethylcellulose (CMC)
[11] = dose: 100.0 mg/kg/injection, schedule: Q04DX003 (ip), vehicle: saline
[12] = dose: 200.0 mg/kg/injection, schedule: Q04DX003 (ip), vehicle: saline
[13] = dose: 400.0 mg/kg/injection, schedule: Q04DX003 (ip), vehicle: saline
[14] = dose: 100.0 mg/kg/injection, schedule: Q04DX003 (ip), vehicle: saline with Tween-80
[15] = dose: 200.0 mg/kg/injection, schedule: Q04DX003 (ip), vehicle: saline with Tween-80

Measured: T/C

CN(C)C(=S)[S][Sn]([c]1ccccc1)([c]1ccccc1)[c]1ccccc1
inactive: dose: 1.25 mg/kg/injection, schedule: Q01DX009 (ip), vehicle: saline with Tween-80 88 % of control | dose: 1.25 mg/kg/injection, schedule: Q04DX003 (ip), vehicle: saline with Tween-80 99 % of control | dose: 2.5 mg/kg/injection, schedule: Q01DX009 (ip), vehicle: saline with Tween-80 93 % of control | dose: 2.5 mg/kg/injection, schedule: Q04DX003 (ip), vehicle: saline with Tween-80 99 % of control | dose: 5.0 mg/kg/injection, schedule: Q01DX001 (ip), vehicle: steriod suspending solution 95 % of control | dose: 5.0 mg/kg/injection, schedule: Q01DX009 (ip), vehicle: Klucel (hydroxypropylcellulose) (HPC) 101 % of control | dose: 5.0 mg/kg/injection, schedule: Q01DX009 (ip), vehicle: saline with Tween-80 106 % of control | dose: 5.0 mg/kg/injection, schedule: Q04DX003 (ip), vehicle: Klucel (hydroxypropylcellulose) (HPC) 92 % of control | dose: 5.0 mg/kg/injection, schedule: Q04DX003 (ip), vehicle: saline with Tween-80 98 % of control | dose: 10.0 mg/kg/injection, schedule: Q01DX001 (ip), vehicle: steriod suspending solution 101 % of control | dose: 10.0 mg/kg/injection, schedule: Q01DX009 (ip), vehicle: Klucel (hydroxypropylcellulose) (HPC) 92 % of control | dose: 10.0 mg/kg/injection, schedule: Q04DX003 (ip), vehicle: Klucel (hydroxypropylcellulose) (HPC) 97 % of control | dose: 20.0 mg/kg/injection, schedule: Q01DX009 (ip), vehicle: Klucel (hydroxypropylcellulose) (HPC) 103 % of control | dose: 20.0 mg/kg/injection, schedule: Q04DX003 (ip), vehicle: Klucel (hydroxypropylcellulose) (HPC) 91 % of control | dose: 40.0 mg/kg/injection, schedule: Q01DX001 (ip), vehicle: steriod suspending solution 92 % of control

O=[N+]([O-])c1ccc(O)c(N=Cc2ccccc2)c1
inactive: [1] 97 % of control | [2] 96 % of control | [3] 100 % of control

CC(C)CNCc1cc([N+](=O)[O-])ccc1O
inactive: [4] 100 % of control | [5] 97 % of control | [6] 94 % of control

CC(=O)[O][Pb]([CH3])([CH3])[CH3]
inactive: dose: 5.0 mg/kg/injection, schedule: Q01DX001 (ip), vehicle: carboxymethylcellulose (CMC) 110 % of control | dose: 10.0 mg/kg/injection, schedule: Q01DX001 (ip), vehicle: carboxymethylcellulose (CMC) 103 % of control

O=C(O)CCCc1nc2ccccc2c(=O)[nH]1
inactive: dose: 44.0 mg/kg/injection, schedule: Q01DX001 (ip), vehicle: carboxymethylcellulose (CMC) 101 % of control and 103 % of control | [7] 108 % of control | dose: 66.0 mg/kg/injection, schedule: Q01DX001 (ip), vehicle: carboxymethylcellulose (CMC) 98 % of control and 103 % of control | [8] 98 % of control and 100 % of control | dose: 150.0 mg/kg/injection, schedule: Q01DX001 (ip), vehicle: carboxymethylcellulose (CMC) 93 % of control and 100 % of control | [9] 106 % of control | [10] 101 % of control

C#CCOC(=O)CCC(=O)OCC#C
inactive: [1] 103 % of control | dose: 100.0 mg/kg/injection, schedule: Q01DX009 (ip), vehicle: saline 94 % of control | [11] 94 % of control | [2] 100 % of control | dose: 200.0 mg/kg/injection, schedule: Q01DX009 (ip), vehicle: saline 97 % of control | [12] 96 % of control | [3] 100 % of control | dose: 400.0 mg/kg/injection, schedule: Q01DX009 (ip), vehicle: saline 94 % of control | [13] 98 % of control

NC(CSS(=O)(=O)O)=NCCC1=NCCN1
inactive: dose: 25.0 mg/kg/injection, schedule: Q04DX002 (ip), vehicle: saline 101 % of control | dose: 50.0 mg/kg/injection, schedule: Q04DX002 (ip), vehicle: saline 101 % of control | dose: 100.0 mg/kg/injection, schedule: Q04DX002 (ip), vehicle: saline 101 % of control | dose: 200.0 mg/kg/injection, schedule: Q04DX002 (ip), vehicle: saline 96 % of control and 107 % of control | dose: 400.0 mg/kg/injection, schedule: Q04DX002 (ip), vehicle: saline 115 % of control

OC(OC/C(I)=C(/I)COC(O)C(Cl)(Cl)Cl)C(Cl)(Cl)Cl (stereo unspecified)
inactive: dose: 100.0 mg/kg/injection, schedule: Q01DX009 (ip), vehicle: other 103 % of control | dose: 100.0 mg/kg/injection, schedule: Q04DX003 (ip), vehicle: other 103 % of control | dose: 200.0 mg/kg/injection, schedule: Q01DX009 (ip), vehicle: other 92 % of control | dose: 200.0 mg/kg/injection, schedule: Q04DX003 (ip), vehicle: other 100 % of control | dose: 400.0 mg/kg/injection, schedule: Q04DX003 (ip), vehicle: other 97 % of control

NNc1ncnc2nc[nH]c12
inactive: dose: 12.0 mg/kg/injection, schedule: Q01DX015 (ip), vehicle: saline 93 % of control | dose: 25.0 mg/kg/injection, schedule: Q01DX015 (ip), vehicle: saline 101 % of control | dose: 50.0 mg/kg/injection, schedule: Q01DX015 (ip), vehicle: saline 104 % of control | [4] 105 % of control | dose: 100.0 mg/kg/injection, schedule: Q01DX015 (ip), vehicle: saline 116 % of control | [5] 102 % of control | [6] 114 % of control

CC(=O)Oc1ccc(C=O)cc1
inactive: dose: 50.0 mg/kg/injection, schedule: Q04DX003 (ip), vehicle: saline with Tween-80 96 % of control | [14] 91 % of control | [15] 96 % of control

COc1ccc(CN2CCCN(Cc3ccc(OC)cc3OC)C2c2ccc(N(CCCl)CCCl)cc2Cl)c(OC)c1
inactive: [7] 101 % of control | [8] 95 % of control | [9] 98 % of control | [10] 101 % of control

CCOc1ccc(C(=O)Nc2ccc(C3=NCCN3)cc2)cc1C(=O)Nc1ccc(C2=NCCN2)cc1
inactive: dose: 30.0 mg/kg/injection, schedule: Q01DX Z (oral), vehicle: saline 93 % of control | dose: 60.0 mg/kg/injection, schedule: Q01DX Z (oral), vehicle: saline 91 % of control | dose: 62.5 mg/kg/injection, schedule: Q01DX010 (oral), vehicle: saline 107 % of control | dose: 120.0 mg/kg/injection, schedule: Q01DX Z (oral), vehicle: saline 103 % of control | dose: 125.0 mg/kg/injection, schedule: Q01DX010 (oral), vehicle: saline 112 % of control | dose: 240.0 mg/kg/injection, schedule: Q01DX Z (oral), vehicle: saline 92 % of control | dose: 250.0 mg/kg/injection, schedule: Q01DX010 (oral), vehicle: saline 112 % of control | dose: 500.0 mg/kg/injection, schedule: Q01DX010 (oral), vehicle: saline 106 % of control

Nc1ncnc2c1ncn2C1CC(O)C(CO)O1 (stereo unspecified)
inactive: [14] 101 % of control | [11] 98 % of control | [15] 98 % of control | [12] 104 % of control | dose: 400.0 mg/kg/injection, schedule: Q04DX003 (ip), vehicle: saline with Tween-80 98 % of control | [13] 93 % of control | dose: 440.0 mg/kg/injection, schedule: Q03HX024 (ip), vehicle: saline with Tween-80 105 % of control | dose: 660.0 mg/kg/injection, schedule: Q03HX024 (ip), vehicle: saline with Tween-80 110 % of control | dose: 1000.0 mg/kg/injection, schedule: Q03HX024 (ip), vehicle: saline with Tween-80 104 % of control

N#Cc1nc2c(n(O)c1=N)CCC/C2=C\c1ccccc1
inactive: dose: 50.0 mg/kg/injection, schedule: Q01DX009 (ip), vehicle: Klucel (hydroxypropylcellulose) (HPC) 103 % of control | dose: 100.0 mg/kg/injection, schedule: Q01DX009 (ip), vehicle: Klucel (hydroxypropylcellulose) (HPC) 103 % of control | dose: 200.0 mg/kg/injection, schedule: Q01DX009 (ip), vehicle: Klucel (hydroxypropylcellulose) (HPC) 93 % of control

Cc1cnc2cccc(C)c2c1Cl
inactive: dose: 50.0 mg/kg/injection, schedule: Q01DX001 (ip), vehicle: saline 101 % of control | [1] 97 % of control | [2] 95 % of control
